The text below walks through data of US11040954B1, “CXCR3 receptor agonists” (RECEPTOS LLC, priority 2016, dated 2021).

SMILES strings stand for the structures. pEC50: −log10 of the molar value.

The assay deals with T1, CXCR3 (Homo sapiens, UniProt P49682).
T1 construct: host or cells: CHO-K1 (cAMP Hunter CHOK1 CXCR3 Gi cell line)
T1 sequence (P49682 1-368): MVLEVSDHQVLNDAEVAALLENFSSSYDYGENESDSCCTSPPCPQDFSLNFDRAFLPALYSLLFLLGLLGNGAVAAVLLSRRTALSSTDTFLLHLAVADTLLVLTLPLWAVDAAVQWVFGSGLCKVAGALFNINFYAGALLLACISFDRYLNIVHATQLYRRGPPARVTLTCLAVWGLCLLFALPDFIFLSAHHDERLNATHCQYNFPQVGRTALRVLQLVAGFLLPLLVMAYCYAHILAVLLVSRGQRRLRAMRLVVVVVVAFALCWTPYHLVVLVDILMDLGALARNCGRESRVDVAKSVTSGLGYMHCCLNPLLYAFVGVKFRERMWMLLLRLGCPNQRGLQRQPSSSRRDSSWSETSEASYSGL
In words: CXCR3 cAMP agonist assay (cAMP Hunter CHOK1 CXCR3 Gi cell line, forskolin-stimulated, HitHunter cAMP detection). It is filed as cell-based. The note with it: cAMP Hunter CHOK1 CXCR3 Gi cells, 20 μM forskolin, 30 minutes; read-out: Activity (CXCR3 cAMP agonist assay compound EC50). Put shortly: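 CHOK1 cells expressing human CXCR3 with Gi coupling, 50,000/well in suspension in HBSS/10 mM HEPES/0.1% BSA pH 7.4, were co-treated with 20 μM forskolin and compound (12-point, 0-10 μM, 1% DMSO) for 30 min. cAMP was read by enzyme-complementation luminescence; CXCL11 dose response set maximum efficacy.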
In the case of `Cc1cc(NC(=O)[C@H](CNC(=N)N)NC(=O)[C@@H]2Cc3ccccc3CN2C(=O)CCC(=O)c2ccccc2)ccc1Cl` [Compound 9-1, (S)—N—((S)-1-((4-chloro-3-methylphenyl)amino)-3-guanidino-1-oxopropan-2-yl)-2-(4-oxo-4-phenylbutanoyl)-1,2,3,4-tetrahydroisoquinoline-3-carboxamide], the pEC50 is more than 7.30.

`Cc1cc(NC(=O)[C@H](CCN)NC(=O)[C@@H]2Cc3ccccc3CN2C(=O)CCC(=O)N2CCN(C)C(C)(C)C2)ccc1Cl` [Compound 12-131]: the pEC50 is more than 7.30.

For the compound `Cc1cc(NC(=O)C2(NC(=O)[C@@H]3Cc4ccccc4CN3C(=O)CCC(=O)c3ccccc3)CCNCC2)c(F)cc1Cl` [Compound 11-3], the pEC50 was more than 7.30.

In the case of `CC(C)(C)C1CCCCN1C(=O)CCC(=O)N1Cc2ccccc2C[C@H]1C(=O)N[C@@H](CCN)C(=O)Nc1ccc(Cl)c(Cl)c1F` (stereo partly drawn) [Compound 15-32], the pEC50 is 6.30 to 6.60.

Regarding `Cc1c(Cl)ccc(NC(=O)C2(NC(=O)[C@@H]3Cc4ccccc4CN3C(=O)CCC(=O)c3ccccc3)CCNCC2)c1C` [Compound 11-4], the pEC50 is 6.60 to 7.30.

Turning to `Cc1cc(NC(=O)[C@H](CCN)NC(=O)[C@@H]2Cc3ccccc3CN2C(=O)CCC(=O)N2CC[C@@H](C)C2)ccc1Cl` [Compound 12-122], the pEC50 is more than 7.30.

On to `Cc1cc(NC(=O)[C@H](CCN)NC(=O)[C@@H]2Cc3ccccc3CN2C(=O)CCC(=O)N(C)C(C)(C)C)ccc1Cl` [Compound 12-93], for which the pEC50 is more than 7.30.

In the case of `CC[C@@H]1CN(C(=O)CCC(=O)N2Cc3ccccc3C[C@H]2C(=O)N[C@@H](CCN)C(=O)Nc2ccc(Cl)c(C)c2)CCN1C` [Compound 12-151], the pEC50 is more than 7.30.

With `Cc1cc(NC(=O)[C@H](CCNC(=N)N)NC(=O)[C@@H]2Cc3ccccc3CN2C(=O)CCC(=O)c2ccccc2)ccc1Cl` [Compound 3-2], the negative logarithm of the EC50 (pEC50) is more than 7.30.

As for `O=C(CCC(=O)N1Cc2ccccc2CC1C(=O)NC(CCN1CCC(F)CC1)C(=O)Nc1ccc(Cl)c(Cl)c1F)c1ccccc1` (racemic) [Compound 23-3], the pEC50 was more than 7.30.

On to `NCC[C@H](NC(=O)[C@@H]1Cc2ccccc2CN1C(=O)CCC(=O)c1ccccc1)C(=O)Nc1cc(Cl)c(F)c(Cl)c1` [Compound 27-2], for which the pEC50 is 6.30 to 6.60.

Regarding `COc1ccccc1NC(=O)[C@H](CCCCN)NC(=O)[C@@H]1Cc2ccccc2CN1C(=O)CCC(=O)c1ccccc1` [Compound 1-6], the pEC50 was 6.30 to 6.60.

Turning to `O=C(CCC(=O)N1Cc2ccccc2C[C@H]1C(=O)N[C@@H](CCN1CCC(O)CC1)C(=O)Nc1ccc2c(c1)CCC2)c1ccccc1` [Compound 28-1, (S)—N—((S)-1-((2,3-dihydro-1H-inden-5-yl)amino)-4-(4-hydroxypiperidin-1-yl)-1-oxobutan-2-yl)-2-(4-oxo-4-phenylbutanoyl)-1,2,3,4-tetrahydroisoquinoline-3-carboxamide], the pEC50 is more than 7.30.

For the compound `CN(C(=O)CCC(=O)N1Cc2ccccc2C[C@H]1C(=O)NC1(C(=O)Nc2ccc(Cl)c(Cl)c2F)CCNCC1)C(C)(C)C` [Compound 12-125], the pEC50 is 6.60 to 7.30.

In the case of `CC(C)(O)C1CCCCN1C(=O)CCC(=O)N1Cc2ccccc2C[C@H]1C(=O)N[C@@H](CCN)C(=O)Nc1ccc(Cl)c(Cl)c1F` (stereo partly drawn) [Compound 15-55], the pEC50 was more than 7.30.

As to `Cc1cc(NC(=O)[C@H](CCN)NC(=O)[C@@H]2Cc3ccccc3CN2C(=O)CCC(=O)c2ccccc2)ncc1Cl` [Compound 4-16], the pEC50 was more than 7.30.

On to `Cc1cc(NC(=O)[C@H](CCN)NC(=O)[C@@H]2Cc3ccccc3CN2C(=O)CCC(=O)N2CCN(C(=O)N(C)C)CC2)ccc1Cl` [Compound 12-109], for which the pEC50 was 6.30 to 6.60.

Turning to `Cc1cc(NC(=O)[C@H](CCN)NC(=O)[C@@H]2Cc3ccccc3CN2C(=O)CCC(=O)N2CCC(C)(C)CC2)cc(C)c1Cl` [Compound 10-12], the negative logarithm of the EC50 (pEC50) was more than 7.30.

As usually defined, the pEC50 is −log10 of the EC50, conventionally taken in molar units.
